Ends that are not written are not given here.
Columns and labels:
GPRALS1 [1] = assay: iCa^2+ release (Fluo-4 NW) in stable CHO cells expressing GPRALS1; assay type: cell-based, Anopheles coluzzii; conditions: 1 nM to 1 μM (BLAST-2 0.5 μM to 0.005 μM)
Procedure: (§1) The amplified insect receptors included the initiation and termination codons but were not cloned in frame with vector tag proteins. The recombinant constructs were used to transfect mammalian CHO cells that had been maintained in complete Dulbecco’s modified Eagle’s medium (DMEM, Sigma, Spain) containing 4.5 g/L glucose, 110 mg/L sodium pyruvate and L-glutamine and supplemented with 10% sterile foetal bovine serum and 0.1% penicillin: streptomycin antibiotic mix (10.000 U: 10 mg/ml, Sigma) and 250μg/ml sterile filtered amphotericin B solution (1:100 dilution, Sigma, Spain). One day prior to transfection, 2–3 x10^5 cells were seeded into 6 well plates (Sarstedt, Portugal) and transfected using Fugene 6 reagent (1: 6 DNA: Fugene, Roche, Germany) according to the manufacturer’s protocol. The efficiency and success of cell transfection was estimated by performing a simultaneous transfection with a plasmid encoding a fluorescent protein. 72 h after incubation, transformed cells were selected by supplementing medium with 800μg/ml of the antibiotic Geneticin (G418 sulphate, GibcoBRL, USA) and cell recovery was monitored daily and the medium changed until no cell death was observed. Establishment of AST-AR CHO stable cell lines were confirmed by PCR using receptor specific primers.
(§2) GPRALS1 and GPRALS2 stable CHO cell lines were stimulated with Ano_AST-A1 and Ano_AST-A2 peptides, the B. germanica BLAST-2 peptide and rat GAL and sea bass KISS peptides and iCa^2+ release and cAMP production were measured.
(§3) For iCa^2+ release (Relative Fluorescent Units, RFU) a Ca^2+ sensitive fluorescent dye Fluo-4 NW (Molecular Probes, Invitrogen) was used. Approximately 50,000 cells were assayed per well and the variation in fluorescence after addition of increasing peptide concentrations (1 nM to 1 μM, diluted in the assay buffer) was measured every 5s over a total of 2 min and fluorescence was excited using a 485/20 nm filter and captured with a 528/20 nm filter in a Biotek Synergy 4 plate reader (Biotek, USA). Background RFU of transfected cells was measured prior to peptide stimulation. The controls consisted of transfected cells exposed to carbachol (100 nM; Sigma, Spain) and non-transfected CHO cells stimulated with 1 μM of each peptide (negative control).
(§4) Quantitative expression data is presented as mean ± SEM of cDNA from 3 independent experiments analysed in duplicate. Significant changes in transcript expression were assessed using a nonparametric Mann-Whitney two-tailed test. Receptor activation is presented as the mean ± SEM of three independent experiments carried out in triplicate and statistical significance was assessed using a Kruskal-Wallis test with Dunn’s Multiple Comparison Test. […]

GPRALS2 [2] = assay: iCa^2+ release (Fluo-4 NW) in stable CHO cells expressing GPRALS2; assay type: cell-based, Anopheles coluzzii; conditions: 1 nM to 1 μM (BLAST-2 0.5 μM to 0.005 μM)
Procedure: as §1, §2, §3, §4

galanin receptors (GALR) = conditions: vertebrates; cited from earlier work
Description: AST-A peptides activate specific G-protein coupled receptors (GPCRs), the insect allatostatin-A receptors (AST-ARs) that are considered orthologues of galanin receptors (GALR) in vertebrates. In vertebrates, GALRs have a close evolutionary relationship with kisspeptin receptors (KISSR) and are activated by galanin (GAL) and spexin (SPX), peptides that are unrelated to insect AST-As. AST-A peptide function is relatively well studied but the receptors have only been isolated in a few insect species and their evolution and function is unresolved. In t ...

GPRALS1 [3] = assay: cAMP production (competitive immunoassay) in stable CHO cells expressing GPRALS1; assay type: cell-based, Anopheles coluzzii; conditions: 1 x PBS/1 mM IBMX, 30 min at 37°C, cryptate labelled anti-cAMP antibody, triplicate on three occasions
Procedure: (§5) The amplified insect receptors included the initiation and termination codons but were not cloned in frame with vector tag proteins. The recombinant constructs were used to transfect mammalian CHO cells that had been maintained in complete Dulbecco’s modified Eagle’s medium (DMEM, Sigma, Spain) containing 4.5 g/L glucose, 110 mg/L sodium pyruvate and L-glutamine and supplemented with 10% sterile foetal bovine serum and 0.1% penicillin: streptomycin antibiotic mix (10.000 U: 10 mg/ml, Sigma) and 250μg/ml sterile filtered amphotericin B solution (1:100 dilution, Sigma, Spain). […] 72 h after incubation, transformed cells were selected by supplementing medium with 800μg/ml of the antibiotic Geneticin (G418 sulphate, GibcoBRL, USA) and cell recovery was monitored daily and the medium changed until no cell death was observed. […]
as §2
(§6) The amount of cAMP produced was determined using a competitive immunoassay with a cryptate labelled anti-cAMP antibody (Cisbio, France) and following the manufactures protocol. […]
(§7) Quantitative expression data is presented as mean ± SEM of cDNA from 3 independent experiments analysed in duplicate. […]

GPRALS2 [4] = assay: cAMP production (competitive immunoassay) in stable CHO cells expressing GPRALS2; assay type: cell-based, Anopheles coluzzii; conditions: 1 x PBS/1 mM IBMX, 30 min at 37°C, cryptate labelled anti-cAMP antibody, triplicate on three occasions
Procedure: as §5, §2, §6, §7

DAR-1 = conditions: D. melanogaster DAR-1; cited from earlier work
DAR-2 = conditions: D. melanogaster DAR-2; cited from earlier work

| Substance | receptor activation, iCa^2+ signalling (GPRALS1 [1]) | receptor activation, iCa^2+ signalling (GPRALS2 [2]) | GALR activation (galanin receptors (GALR)) | further results |
| --- | --- | --- | --- | --- |
| YNLNSFGLRY-NH2 [KISS 1–10, vertebrate KISS peptide, sea bass KISS 1–10 ([…]-NH2)] | failed to activate | failed to activate |  |  |
| spexin (SPX): spexin (SPX), peptide activating vertebrate galanin receptors |  |  | activated |  |
| FNFNPFGLRF-NH2 [KISS 2–10, vertebrate KISS peptide, sea bass KISS 2–10 ([…]-NH2)] | failed to activate | failed to activate |  |  |
| DRLYSFGL-NH2 [BLAST-2, German cockroach Blattella germanica BLAST-2 peptide (DRLYSFGL-NH2)] | activated | activated |  | intracellular cAMP (GPRALS1 [3]): None of the insect peptides induced increased intracellular cAMP; intracellular cAMP (GPRALS2 [4]): None of the insect peptides induced increased intracellular cAMP; iCa^2+ mobilization (DAR-1): stimulates iCa^2+ mobilization; iCa^2+ mobilization (DAR-2): stimulates iCa^2+ mobilization |
| galanin (GAL): galanin (GAL), peptide activating vertebrate galanin receptors |  |  | activated |  |
| rat 1–29 GAL: 1–29 rat galanin (Sigma-Aldrich, Spain) (GWTLNSAGYLLGPHAIDNHRSFSDKHGLT; ends and bridges not checked; UniProt P10683 33-61, looked up) | failed to activate | failed to activate |  |  |

From article PMC4489612, “Unravelling the Evolution of the Allatostatin-Type A, KISS and Galanin Peptide-Receptor Gene Families in Bilaterians: Insights from Anopheles Mosquitoes” (PLoS ONE, 2015)
